From PMC3493464, “Functional Analysis of Metabolic Channeling and Regulation in Lignin Biosynthesis: A Computational Approach” (PLoS Computational Biology, 2012)

Assays:
[1] = molecular target: T1, CCoAOMT (caffeoyl CoA O-methyltransferase) (Medicago sativa, UniProt Q40313); experiment: HPLC assay of feruloyl CoA formation; assay type: biochemical; settings: putative activator; 2 µM caffeyl aldehyde, 20 µM caffeoyl CoA, 200 µM S-adenosyl methionine, 600 µM MgCl2, 2 mM DTT, 4% DMSO, pH 7.5, 30 °C
T1 construct: gene CCOMT; alfalfa cDNA in pET15b, His-tagged, expressed in E. coli Rosetta, Ni-NTA purified; tag removal not mentioned

[2] = molecular target: T1, CCoAOMT (caffeoyl CoA O-methyltransferase); experiment: HPLC assay of feruloyl CoA formation; assay type: biochemical; settings: 20, 30 or 40 µM caffeoyl CoA; 200 µM S-adenosyl methionine, 600 µM MgCl2, 2 mM DTT, pH 7.5, 30 °C

T1 sequence (Q40313 whole entry): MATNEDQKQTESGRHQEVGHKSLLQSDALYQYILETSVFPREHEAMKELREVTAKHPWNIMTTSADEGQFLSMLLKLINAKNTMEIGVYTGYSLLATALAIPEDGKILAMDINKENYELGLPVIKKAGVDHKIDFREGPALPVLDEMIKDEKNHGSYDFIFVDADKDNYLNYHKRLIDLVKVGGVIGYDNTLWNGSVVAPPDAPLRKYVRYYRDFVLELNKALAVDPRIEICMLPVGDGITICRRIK

% increase in activity at 2 μM [1]	Compound	HPLC assay of feruloyl CoA formation [2]
16%	O=C/C=C/c1ccc(O)c(O)c1 [caffeyl aldehyde]	
	CC(C)(COP(=O)(O)OP(=O)(O)OC[C@H]1O[C@@H](n2cnc3c(N)ncnc32)[C@H](O)[C@@H]1OP(=O)(O)O)[C@@H](O)C(=O)NCCC(=O)NCCSC(=O)/C=C/c1ccc(O)c(O)c1 [caffeoyl CoA]	assayed the purified recombinant enzyme with caffeoyl CoA as substrate
